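Dose response: 5 concentrations. Exposure: 48 h. Format: 96-well plates. Endpoint: linear interpolation; highest concentration if not reached. GI50 = concentration required for 50% inhibition of growth. Definition used: TGI = concentration required for complete inhibition of growth.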

Among the test systems are NCI-H226 lung; DU-145 prostate; HL-60(TB) leukemia; MOLT-4 leukemia; SK-MEL-28 melanoma; M14 melanoma; COLO 205 colon; OVCAR-5 ovarian.
Holding throughout (assay): growth of human tumour cells (NCI), 48 h

As to `Cc1ccc2c(c1)c(Sc1ccc(C(=O)NO)cc1)c1n2CN(C)CC1`, the GI50 with NCI-H226 lung was 1.83 µM; in the assay on DU-145 prostate it was 1.83 µM; with HL-60(TB) leukemia it was 2350 nM; in the assay on MOLT-4 leukemia, 2.05 µM; in the assay on SK-MEL-28 melanoma, 1.58 µM; in the assay with M14 melanoma, 1720 nM. Further, the GI50 is 1.82 µM in the assay with COLO 205 colon and 1.75 µM in the assay on OVCAR-5 ovarian. Moreover, the TGI in the assay with NCI-H226 lung is 4.86 µM; in the assay with DU-145 prostate, 5.28 µM; in the assay with HL-60(TB) leukemia it was 6.4 µM; in the assay with MOLT-4 leukemia, 6.98 µM; in the assay on SK-MEL-28 melanoma, 3.63 µM; in the assay with M14 melanoma, 3.79 µM. The TGI in the assay with COLO 205 colon came out at 4.11 µM; in the assay on OVCAR-5 ovarian, 5.54 µM.

As to `CCCCCCn1c(-c2ccc(C(=O)O/N=C(\N)c3ccc4ccccc4c3)cc2)nc(-c2ccccc2)c1-c1ccccc1`, the GI50 in the assay on NCI-H226 lung was 27.3 µM; in the assay with DU-145 prostate it was more than 100 µM; with HL-60(TB) leukemia, 1330 nM; in the assay with MOLT-4 leukemia, more than 100 µM; with SK-MEL-28 melanoma it was more than 100 µM; with M14 melanoma, more than 83500 nM. The GI50 in the assay with COLO 205 colon and in the assay with OVCAR-5 ovarian was more than 100 µM each time. The TGI with NCI-H226 lung, in the assay with DU-145 prostate, in the assay with HL-60(TB) leukemia, with MOLT-4 leukemia, in the assay on SK-MEL-28 melanoma and in the assay with M14 melanoma was more than 100 µM each time. Also, the TGI in the assay on COLO 205 colon and in the assay with OVCAR-5 ovarian was more than 100 µM each time.

In the case of `COc1ccc2c(c1)CC[C@@H]1[C@@H]2CC[C@]2(C)c3c(cc(C(=O)O)c4sccc34)C[C@@H]12`, the GI50 is 23 µM in the assay with NCI-H226 lung; 19.2 µM in the assay with DU-145 prostate; 8610 nM in the assay on HL-60(TB) leukemia; 10.1 µM in the assay on MOLT-4 leukemia; 15.8 µM in the assay on SK-MEL-28 melanoma; 18200 nM in the assay on M14 melanoma. The GI50 in the assay with COLO 205 colon was 16.4 µM; with OVCAR-5 ovarian it was 26 µM. Besides, the TGI in the assay on NCI-H226 lung amounted to 55.4 µM; in the assay with DU-145 prostate, 36.2 µM; in the assay on HL-60(TB) leukemia, 25.3 µM; in the assay with MOLT-4 leukemia, 25.4 µM; with SK-MEL-28 melanoma, 33.4 µM; in the assay with M14 melanoma, 37.1 µM. For the same molecule, the TGI in the assay with COLO 205 colon came out at 70 µM; with OVCAR-5 ovarian, 50.1 µM.

`CCCCCCCCCCCCSC1=C(Cl)C(=O)C(OC)=C(OC)C1=O`: the GI50 was 5.9 µM in the assay on NCI-H226 lung; 11.2 µM in the assay with DU-145 prostate; 50.2 nM in the assay on HL-60(TB) leukemia; 0.617 µM in the assay with MOLT-4 leukemia; 5.93 µM with SK-MEL-28 melanoma; 2530 nM in the assay on M14 melanoma. For the same molecule, the GI50 with COLO 205 colon was 4.32 µM; in the assay with OVCAR-5 ovarian, 3.49 µM. The TGI in the assay on NCI-H226 lung stood at 28.3 µM; in the assay with DU-145 prostate, 31.5 µM; in the assay on HL-60(TB) leukemia, 5.82 µM; in the assay on MOLT-4 leukemia, 18.6 µM; in the assay with SK-MEL-28 melanoma, 21.8 µM; in the assay with M14 melanoma it was 18.4 µM. In addition, the figures for the TGI with COLO 205 colon and in the assay with OVCAR-5 ovarian were 18.4 µM and 11.7 µM, respectively.

For `COCCNc1ccc2c3c(cccc13)C(=O)N(CCN(C)C)C2=O`, the GI50 in the assay on NCI-H226 lung was 5.01 µM; in the assay with DU-145 prostate, 9.41 µM; with HL-60(TB) leukemia it was 6780 nM; in the assay on MOLT-4 leukemia, 4.98 µM; in the assay with SK-MEL-28 melanoma, 7.16 µM; in the assay with M14 melanoma it was 7980 nM. Moreover, the GI50 in the assay on COLO 205 colon was 2.74 µM; with OVCAR-5 ovarian, 9.41 µM. The TGI in the assay on NCI-H226 lung was 17 µM; with DU-145 prostate, more than 25 µM; with HL-60(TB) leukemia, 14.4 µM; in the assay on MOLT-4 leukemia, 13 µM; with SK-MEL-28 melanoma, 23.1 µM; in the assay on M14 melanoma, more than 25 µM. Moreover, the TGI with COLO 205 colon was 12.5 µM; in the assay with OVCAR-5 ovarian it was more than 25 µM.

`CCc1nc(N)nc(N)c1-c1ccc2nnn(O)c2c1`: the TGI with NCI-H226 lung, in the assay on DU-145 prostate, in the assay on HL-60(TB) leukemia, in the assay with MOLT-4 leukemia, in the assay with SK-MEL-28 melanoma and in the assay with M14 melanoma was more than 100 µM each time. Also, the TGI with COLO 205 colon and in the assay with OVCAR-5 ovarian was more than 100 µM throughout.

On to `COc1ccc(Nc2cc(C)nc(NCc3ccccc3)n2)cc1`, for which the GI50 in the assay with NCI-H226 lung was 6.14 µM; in the assay on DU-145 prostate, 10.6 µM; in the assay on HL-60(TB) leukemia, 4910 nM; in the assay on MOLT-4 leukemia, 5.5 µM; in the assay on SK-MEL-28 melanoma it was 2.39 µM; in the assay with M14 melanoma it was 2110 nM. In addition, the GI50 was 2.08 µM in the assay on COLO 205 colon and 5.31 µM in the assay with OVCAR-5 ovarian. The TGI in the assay on NCI-H226 lung came out at 21.3 µM; in the assay with DU-145 prostate, 23 µM; with HL-60(TB) leukemia, 27.6 µM; in the assay on MOLT-4 leukemia, 26.9 µM; in the assay on SK-MEL-28 melanoma, 6.97 µM; in the assay on M14 melanoma, 7.52 µM. Also, the values for the TGI in the assay with COLO 205 colon and in the assay on OVCAR-5 ovarian were 4.4 µM and 20.1 µM, respectively.

In the case of `Cc1nc(-c2nc(-c3ccc(OC(F)(F)F)cc3)no2)nn1Cc1cccc(N2CCC(S(C)(=O)=O)CC2)c1`, the GI50 with NCI-H226 lung was 0.931 µM; with DU-145 prostate, more than 42.8 µM; in the assay with MOLT-4 leukemia it was 3.3 µM; in the assay with SK-MEL-28 melanoma it was more than 24.7 µM; in the assay with M14 melanoma, 5660 nM; with COLO 205 colon, 11.1 µM. For the same molecule, in the assay with OVCAR-5 ovarian, the GI50 was more than 65.8 µM. The TGI with NCI-H226 lung is 41.4 µM; in the assay with DU-145 prostate, more than 100 µM; in the assay on HL-60(TB) leukemia it was more than 49.5 µM; in the assay on MOLT-4 leukemia it was more than 100 µM; in the assay with SK-MEL-28 melanoma, more than 100 µM; in the assay on M14 melanoma it was more than 100 µM. Besides, the TGI in the assay on COLO 205 colon and in the assay with OVCAR-5 ovarian was more than 100 µM in each case.

As for `Cc1cc(O)cc(C)c1/C=C/c1cncc(C(N)=O)c1`, the GI50 in the assay on NCI-H226 lung was more than 15.6 µM; in the assay with DU-145 prostate it was 5.15 µM; with HL-60(TB) leukemia it was 2290 nM; with MOLT-4 leukemia, 3.27 µM; with SK-MEL-28 melanoma, 2.3 µM; in the assay with M14 melanoma it was 1200 nM. The GI50 with COLO 205 colon was 16.5 µM; in the assay with OVCAR-5 ovarian it was 12.1 µM. The TGI in the assay on NCI-H226 lung is more than 25 µM; with DU-145 prostate, more than 25 µM; with HL-60(TB) leukemia, more than 12.9 µM; in the assay with MOLT-4 leukemia, more than 25 µM; with SK-MEL-28 melanoma it was more than 25 µM; in the assay with M14 melanoma, 7.75 µM. Also, the TGI in the assay with COLO 205 colon and in the assay on OVCAR-5 ovarian was more than 25 µM each time.

Source of the values: PubChem BioAssay (NCI).
